The target of series [1] is T1, Alpha-1B adrenergic receptor (Rattus norvegicus, UniProt P15823).
T1 sequence (P15823 whole entry): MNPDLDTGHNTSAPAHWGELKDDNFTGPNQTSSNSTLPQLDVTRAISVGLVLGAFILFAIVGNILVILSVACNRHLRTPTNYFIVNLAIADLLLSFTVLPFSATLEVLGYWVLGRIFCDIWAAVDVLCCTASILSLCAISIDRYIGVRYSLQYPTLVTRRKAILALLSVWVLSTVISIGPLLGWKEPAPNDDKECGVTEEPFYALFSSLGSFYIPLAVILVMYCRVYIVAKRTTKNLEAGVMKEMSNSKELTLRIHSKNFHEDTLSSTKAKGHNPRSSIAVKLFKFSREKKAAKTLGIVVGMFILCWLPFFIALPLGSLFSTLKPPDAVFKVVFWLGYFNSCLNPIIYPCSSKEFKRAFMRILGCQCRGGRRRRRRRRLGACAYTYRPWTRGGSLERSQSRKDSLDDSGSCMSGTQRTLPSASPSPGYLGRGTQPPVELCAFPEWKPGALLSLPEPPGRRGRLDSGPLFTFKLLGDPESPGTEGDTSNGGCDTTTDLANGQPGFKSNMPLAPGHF
As to the kind of experiment: DRUGMATRIX: Alpha-1B adrenergic receptor radioligand binding (ligand: prazosin). Particulars: Not Active = under 50% inhibition at 10 µM. The series is classed as cell membranes, Wistar, Liver, Membrane.

Series [2] in a line: DRUGMATRIX: Atrial Natriuretic Factor (ANF) radioligand binding (ligand: [125I] ANF (rat)). Format: cell membranes, Cavia porcellus, Dunkin-Hartley, Adrenal gland, Membrane. The conditions noted are these: Not Active = under 50% inhibition at 10 µM.
The target of series [3] is T2, Substance-K receptor (Homo sapiens, UniProt P21452). Further: in other assays of this panel Not Active means under 50% inhibition at 10 µM.
T2 sequence (P21452 whole entry): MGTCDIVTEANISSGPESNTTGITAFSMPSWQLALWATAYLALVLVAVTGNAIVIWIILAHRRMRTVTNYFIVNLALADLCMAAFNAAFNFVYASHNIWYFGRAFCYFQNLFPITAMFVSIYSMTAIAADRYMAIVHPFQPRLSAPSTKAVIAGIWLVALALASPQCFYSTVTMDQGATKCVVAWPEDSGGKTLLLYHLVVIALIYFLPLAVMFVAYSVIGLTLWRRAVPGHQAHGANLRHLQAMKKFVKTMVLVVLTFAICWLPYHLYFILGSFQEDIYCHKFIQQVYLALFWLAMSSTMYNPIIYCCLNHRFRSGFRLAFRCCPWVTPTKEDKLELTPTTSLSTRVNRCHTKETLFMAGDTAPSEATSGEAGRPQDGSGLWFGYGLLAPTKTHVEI
Format: cell membranes, CHO, Membrane.

The target of series [4] is Vasopressin V1a receptor (Homo sapiens, UniProt P37288). Format: cell membranes, Membrane. Particulars: hek293. Further: in other assays of this panel Not Active means under 50% inhibition at 10 µM.
The target of series [5] is T3, 5-hydroxytryptamine receptor 1A (Rattus norvegicus, UniProt P19327). Further: in other assays of this panel Not Active means under 50% inhibition at 10 µM.
T3 sequence (P19327 whole entry): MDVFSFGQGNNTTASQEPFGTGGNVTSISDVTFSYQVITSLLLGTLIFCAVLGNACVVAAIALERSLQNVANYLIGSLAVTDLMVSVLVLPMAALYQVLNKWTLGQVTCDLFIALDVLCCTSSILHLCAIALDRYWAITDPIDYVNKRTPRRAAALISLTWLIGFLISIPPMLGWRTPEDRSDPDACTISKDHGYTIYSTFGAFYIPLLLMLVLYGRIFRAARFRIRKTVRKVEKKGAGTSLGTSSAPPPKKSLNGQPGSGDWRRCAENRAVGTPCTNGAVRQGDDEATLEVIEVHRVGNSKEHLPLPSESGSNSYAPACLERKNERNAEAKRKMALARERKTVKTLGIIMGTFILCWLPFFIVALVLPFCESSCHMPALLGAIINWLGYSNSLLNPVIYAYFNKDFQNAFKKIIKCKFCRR
Format: cell membranes, CHO-K1, Membrane. Particulars: cho-k1.

For series [6], the target named is Cytochrome P450 2C9 (Homo sapiens, UniProt P11712). Particulars: bti-tn-5b1-4. Further: in other assays of this panel Not Active means under 50% inhibition at 10 µM.
Series [7] has as its target T4, Glucocorticoid receptor (Homo sapiens, UniProt P04150). Further: in other assays of this panel Not Active means under 50% inhibition at 10 µM.
T4 sequence (P04150 whole entry): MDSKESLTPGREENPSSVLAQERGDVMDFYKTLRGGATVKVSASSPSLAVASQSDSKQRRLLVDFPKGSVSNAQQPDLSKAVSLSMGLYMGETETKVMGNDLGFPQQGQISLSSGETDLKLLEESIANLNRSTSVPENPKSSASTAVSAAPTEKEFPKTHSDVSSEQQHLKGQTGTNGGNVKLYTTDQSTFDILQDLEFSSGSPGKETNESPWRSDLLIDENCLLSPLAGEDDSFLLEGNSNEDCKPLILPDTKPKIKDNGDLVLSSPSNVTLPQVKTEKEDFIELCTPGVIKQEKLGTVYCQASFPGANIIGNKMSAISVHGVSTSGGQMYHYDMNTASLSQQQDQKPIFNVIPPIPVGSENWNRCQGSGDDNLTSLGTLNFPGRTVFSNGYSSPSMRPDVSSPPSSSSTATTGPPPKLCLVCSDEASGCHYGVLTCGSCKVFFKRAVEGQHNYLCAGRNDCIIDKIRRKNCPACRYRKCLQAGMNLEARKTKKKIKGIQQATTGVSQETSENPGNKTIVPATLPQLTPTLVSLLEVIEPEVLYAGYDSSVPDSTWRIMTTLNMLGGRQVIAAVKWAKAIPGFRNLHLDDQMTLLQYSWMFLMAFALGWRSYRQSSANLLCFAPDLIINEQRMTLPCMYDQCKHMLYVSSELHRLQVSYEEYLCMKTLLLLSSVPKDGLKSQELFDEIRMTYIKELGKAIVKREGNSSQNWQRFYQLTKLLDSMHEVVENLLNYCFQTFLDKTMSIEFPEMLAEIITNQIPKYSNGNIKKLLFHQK
Particulars: hela s3.

Cytochrome P450 2C9, sequence (P11712 whole entry): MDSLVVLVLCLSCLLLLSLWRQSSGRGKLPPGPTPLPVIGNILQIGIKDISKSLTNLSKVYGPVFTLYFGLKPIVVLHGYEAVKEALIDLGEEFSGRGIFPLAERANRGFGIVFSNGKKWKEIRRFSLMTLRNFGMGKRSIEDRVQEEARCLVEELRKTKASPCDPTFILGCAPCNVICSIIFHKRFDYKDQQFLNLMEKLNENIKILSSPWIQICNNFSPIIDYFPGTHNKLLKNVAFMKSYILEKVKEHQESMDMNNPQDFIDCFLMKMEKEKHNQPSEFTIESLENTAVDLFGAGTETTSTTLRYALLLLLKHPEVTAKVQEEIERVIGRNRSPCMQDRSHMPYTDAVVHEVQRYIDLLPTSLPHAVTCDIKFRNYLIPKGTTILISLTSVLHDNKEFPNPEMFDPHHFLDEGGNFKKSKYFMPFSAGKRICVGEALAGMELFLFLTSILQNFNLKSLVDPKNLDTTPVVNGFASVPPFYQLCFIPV
Vasopressin V1a receptor, sequence (P37288 whole entry): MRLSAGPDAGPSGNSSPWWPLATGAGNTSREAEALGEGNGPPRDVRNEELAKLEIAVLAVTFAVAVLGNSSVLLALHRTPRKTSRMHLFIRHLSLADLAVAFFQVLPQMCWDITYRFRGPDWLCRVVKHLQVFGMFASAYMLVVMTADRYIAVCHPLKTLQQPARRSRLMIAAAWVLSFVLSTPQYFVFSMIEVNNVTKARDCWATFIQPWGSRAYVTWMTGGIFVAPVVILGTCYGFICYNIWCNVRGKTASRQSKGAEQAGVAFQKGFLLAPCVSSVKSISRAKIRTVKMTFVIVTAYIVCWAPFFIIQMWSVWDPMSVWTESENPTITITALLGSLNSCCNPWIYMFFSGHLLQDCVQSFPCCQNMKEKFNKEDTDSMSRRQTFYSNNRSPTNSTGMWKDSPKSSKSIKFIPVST

Take `Nn1nnc2ccccc21`: the IC50 entry in series [1], in series [2], in series [3] (cho), in series [4], in series [5] and in series [6] was “Not Active” each time. In series [7], the IC50 result is “Not Active”. For the same compound, the Ki entry in series [2] and in series [6] was “Not Active” each time.

With `CC[C@]1(O)CC[C@H]2[C@@H]3CCC4=CCCC[C@@H]4[C@H]3CC[C@@]21C`, the half-maximal inhibitory concentration (IC50) entry in series [1], in series [2], in series [3] (cho), in series [4], in series [5] and in series [6] was “Not Active” in each case. The IC50 entry in series [7] is “Not Active”. The Ki entry in series [2] and in series [6] was “Not Active” throughout.

For the compound `CCOC(=O)[C@H](CCc1ccccc1)N[C@@H](C)C(=O)N1Cc2ccccc2C[C@H]1C(=O)O`, the IC50 result in series [1], in series [2], in series [3] (cho), in series [4], in series [5] and in series [6] was “Not Active” each time. The IC50 result in series [7] was “Not Active”. For the same compound, the Ki entry in series [2] and in series [6] was “Not Active” throughout.

`CCOC(=O)[C@H](CCc1ccccc1)N[C@@H](C)C(=O)N1CCC[C@H]1C(=O)O`: the IC50 entry in series [1], in series [2], in series [3] (cho), in series [4], in series [5] and in series [6] was “Not Active” each time. The IC50 result in series [7] is recorded as “Not Active”. Besides, the Ki result in series [2] and in series [6] was “Not Active” throughout.

`Clc1cc2c(cc1Cl)Oc1cc(Cl)c(Cl)cc1O2` [2,3,7,8-TETRACHLORODIBENZO-P-DIOXIN]: the IC50 result in series [1], in series [2], in series [3] (cho), in series [4], in series [5] and in series [6] was “Not Active” throughout. Moreover, in series [7], the 50% inhibitory concentration (IC50) entry is reported as “Not Active”. Moreover, the Ki result in series [2] and in series [6] was “Not Active” in each case.

With `C=C1/C(=C\C=C2/CCC[C@]3(C)[C@@H]([C@H](C)CCCC(C)C)CC[C@@H]23)C[C@@H](O)C[C@@H]1O` [ALFACALCIDOL], the IC50 entry in series [1], in series [2], in series [3] (cho), in series [4], in series [5] and in series [6] was “Not Active” in each case. In series [7], the IC50 entry was “Not Active”. Further, the Ki entry in series [2] and in series [6] was “Not Active” throughout.

For `CCCCCC[C@H]1C(=O)O[C@H](C)[C@H](NC(=O)c2cccc(NC=O)c2O)C(=O)O[C@@H](C)[C@@H]1OC(=O)CC(C)C` [ANTIMYCIN A], the IC50 result in series [1], in series [2], in series [3] (cho), in series [4], in series [5] and in series [6] was “Not Active” each time. Further, the IC50 entry in series [7] is listed as “Not Active”. For the same compound, the Ki result in series [2] and in series [6] was “Not Active” in each case.

For the compound `CO[C@H]1[C@@H](O)[C@H](N)[C@@H](O[C@H]2O[C@H]([C@H](C)N)CC[C@H]2N)[C@H](O)[C@@H]1N(C)C(=O)CN` [ASTROMICIN], the IC50 result in series [1], in series [2], in series [3] (cho), in series [4], in series [5] and in series [6] was “Not Active” each time. For the same compound, the IC50 entry in series [7] is reported as “Not Active”. The Ki result in series [2] and in series [6] was “Not Active” each time.

Regarding `CCc1oc2ccccc2c1C(=O)c1cc(Br)c(O)c(Br)c1` [BENZBROMARONE], the IC50 result in series [1], in series [2], in series [3] (cho), in series [4], in series [5] and in series [7] was “Not Active” each time. Further, in series [2], the Ki result is recorded as “Not Active”.

Take `CN1C(=O)CN=C(c2ccccc2)c2cc(Cl)ccc21` [DIAZEPAM]: the IC50 result in series [1], in series [2], in series [3] (cho), in series [4], in series [5] and in series [7] was “Not Active” in each case. The Ki entry in series [2] is on record as “Not Active”.

Regarding `CCOC(=O)C1=C(C)NC(C)=C(C(=O)OC)C1c1cccc(Cl)c1Cl` (centres undefined) [FELODIPINE], the IC50 entry in series [1], in series [2], in series [3] (cho), in series [4], in series [5] and in series [7] was “Not Active” in each case. Besides, the Ki entry in series [2] was “Not Active”.

`Cc1cn[nH]c1` [FOMEPIZOLE]: the IC50 result in series [1], in series [2], in series [3] (cho), in series [4], in series [5] and in series [7] was “Not Active” each time. For the same compound, the Ki entry in series [2] is on record as “Not Active”.

For the compound `Cc1cnc(C(=O)NCCc2ccc(S(=O)(=O)NC(=O)NC3CCCCC3)cc2)cn1` [GLIPIZIDE], the IC50 entry in series [1], in series [2], in series [3] (cho), in series [4], in series [5] and in series [7] was “Not Active” each time. In series [2], the Ki entry is recorded as “Not Active”.

Consider `C/C=C\c1ccc(O)c(OC)c1` [ISOEUGENOL], for which the IC50 result in series [1], in series [2], in series [3] (cho), in series [4], in series [5] and in series [7] was “Not Active” each time. Further, in series [2], the Ki result is recorded as “Not Active”.

`CC[C@H](C)C(=O)O[C@H]1C[C@@H](C)C=C2C=C[C@H](C)[C@H](CC[C@@H]3C[C@@H](O)CC(=O)O3)[C@H]21` [LOVASTATIN]: the IC50 entry in series [1] was “Not Active”; in series [2], “Not Active”; in series [3] (read-out: IC50), 28.2 µM; in series [4], “Not Active”; in series [5], “Not Active”; in series [7], “Not Active”. Moreover, the Ki result in series [2] is “Not Active”; in series [3] (read-out: Ki) it was 9.41 µM.

For `OCCN1CCN(CCCN2c3ccccc3Sc3ccc(Cl)cc32)CC1` [PERPHENAZINE], the IC50 result in series [1], in series [2], in series [3] (cho), in series [4], in series [5] and in series [7] was “Not Active” in each case. Besides, the Ki entry in series [2] is recorded as “Not Active”.

In general, IC50 refers to the point on the concentration scale where inhibition reaches its midpoint. What is called Ki is a measure of affinity in units of concentration, obtained from inhibition or displacement.

(Values after ChEMBL document CHEMBL1909046, “DrugMatrix in vitro pharmacology data”.)
